{
  "source": "paper PMC11441106",
  "about": "(Journal of medicinal chemistry, 2024)",
  "key": {"[1]": {"target": "D1R (Homo sapiens, UniProt P21728)", "sequence (P21728 whole entry)": "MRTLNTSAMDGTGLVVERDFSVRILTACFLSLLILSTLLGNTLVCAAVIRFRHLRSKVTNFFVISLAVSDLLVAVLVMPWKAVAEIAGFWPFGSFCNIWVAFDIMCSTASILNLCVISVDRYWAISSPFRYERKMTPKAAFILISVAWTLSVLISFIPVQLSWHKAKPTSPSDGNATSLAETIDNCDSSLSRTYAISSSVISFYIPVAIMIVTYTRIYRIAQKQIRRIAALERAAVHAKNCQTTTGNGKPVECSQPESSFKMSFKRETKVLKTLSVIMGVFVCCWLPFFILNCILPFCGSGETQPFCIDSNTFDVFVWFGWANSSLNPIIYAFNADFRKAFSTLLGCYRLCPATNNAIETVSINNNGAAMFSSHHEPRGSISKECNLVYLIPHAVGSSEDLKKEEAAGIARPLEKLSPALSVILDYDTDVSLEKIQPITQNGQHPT", "assay": "Tango β-arrestin recruitment at D1R", "assay_type": "cell-based", "conditions": "Tango assay"}, "[2]": {"assay": "in vivo", "conditions": "rat"}, "[3]": {"target": "hERG (Homo sapiens, UniProt Q12809)", "sequence (Q12809 whole entry)": "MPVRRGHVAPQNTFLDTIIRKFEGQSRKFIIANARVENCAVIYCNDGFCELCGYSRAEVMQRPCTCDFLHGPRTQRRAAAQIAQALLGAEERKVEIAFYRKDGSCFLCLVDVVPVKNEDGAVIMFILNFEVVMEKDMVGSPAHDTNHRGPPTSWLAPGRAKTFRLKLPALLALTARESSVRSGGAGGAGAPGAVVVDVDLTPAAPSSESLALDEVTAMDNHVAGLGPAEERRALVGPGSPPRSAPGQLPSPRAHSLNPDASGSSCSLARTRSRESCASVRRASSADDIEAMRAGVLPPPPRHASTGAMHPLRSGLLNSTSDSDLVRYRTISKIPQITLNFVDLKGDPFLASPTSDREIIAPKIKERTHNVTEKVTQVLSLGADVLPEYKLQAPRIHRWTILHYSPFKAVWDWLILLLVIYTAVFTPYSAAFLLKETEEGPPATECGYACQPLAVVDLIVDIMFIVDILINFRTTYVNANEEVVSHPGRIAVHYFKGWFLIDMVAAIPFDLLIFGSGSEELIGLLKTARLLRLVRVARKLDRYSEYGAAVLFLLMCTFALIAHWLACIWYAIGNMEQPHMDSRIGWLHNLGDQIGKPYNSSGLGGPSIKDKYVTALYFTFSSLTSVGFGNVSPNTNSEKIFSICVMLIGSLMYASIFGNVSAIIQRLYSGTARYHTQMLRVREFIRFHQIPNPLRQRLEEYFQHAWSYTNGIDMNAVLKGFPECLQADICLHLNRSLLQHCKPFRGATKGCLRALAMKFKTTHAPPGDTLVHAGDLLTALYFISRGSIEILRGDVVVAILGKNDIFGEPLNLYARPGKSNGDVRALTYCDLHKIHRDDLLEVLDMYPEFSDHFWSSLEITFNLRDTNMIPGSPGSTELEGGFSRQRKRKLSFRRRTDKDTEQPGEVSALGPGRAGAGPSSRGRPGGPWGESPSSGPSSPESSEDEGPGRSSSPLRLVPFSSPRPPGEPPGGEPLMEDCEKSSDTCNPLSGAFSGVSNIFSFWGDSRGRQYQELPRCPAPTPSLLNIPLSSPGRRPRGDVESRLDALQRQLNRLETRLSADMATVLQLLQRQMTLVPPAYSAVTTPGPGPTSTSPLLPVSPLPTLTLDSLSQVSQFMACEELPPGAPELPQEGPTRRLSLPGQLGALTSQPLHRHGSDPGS", "assay_type": "binding"}, "[4]": {"target": "T1, α 1D (Homo sapiens, UniProt P25100)", "T1 sequence (P25100 1-572)": "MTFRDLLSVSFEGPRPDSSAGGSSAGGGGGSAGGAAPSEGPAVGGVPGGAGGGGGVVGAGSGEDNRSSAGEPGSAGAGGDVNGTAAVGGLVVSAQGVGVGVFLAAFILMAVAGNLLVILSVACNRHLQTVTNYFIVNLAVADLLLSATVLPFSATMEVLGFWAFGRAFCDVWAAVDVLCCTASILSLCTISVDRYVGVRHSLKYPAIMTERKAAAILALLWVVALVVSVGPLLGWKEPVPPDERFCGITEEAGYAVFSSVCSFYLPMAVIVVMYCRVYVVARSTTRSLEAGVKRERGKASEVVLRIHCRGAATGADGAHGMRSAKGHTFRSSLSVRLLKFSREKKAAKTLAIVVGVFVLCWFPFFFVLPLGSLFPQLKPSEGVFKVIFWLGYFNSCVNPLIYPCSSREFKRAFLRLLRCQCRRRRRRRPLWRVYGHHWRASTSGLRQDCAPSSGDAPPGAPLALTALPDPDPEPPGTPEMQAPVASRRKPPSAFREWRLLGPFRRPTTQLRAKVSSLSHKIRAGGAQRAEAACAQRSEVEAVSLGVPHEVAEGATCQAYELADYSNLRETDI", "assay": "NIMH-PDSP broad-panel counter screening", "conditions": "read-out: % inhibition (10 μM)"}, "[5]": {"tested_on": "GABAA", "assay": "NIMH-PDSP broad-panel counter screening"}},
  "data": [
    {"compound": "O=C(NCCO)c1cccc2c1CCN2c1cc(Cc2cccc(C(F)(F)F)c2)ccn1", "note": "[Compound 4a]", "values": [
      {"measurement": "β-arrestin recruitment response at D1R", "setting": "[1]", "value": "no response"}
    ]},
    {"compound": "Cc1c(Nc2cc(Cc3cccc(C(F)(F)F)c3)ccn2)cccc1C(=O)NCCO", "note": "[Compound 15b, N-(2-Hydroxyethyl)-2-methyl-3-((4-(3-(trifluoromethyl)benzyl)-pyridin-2-yl)amino)benzamide]", "values": [
      {"measurement": "Vd", "setting": "[2]; male, Sprague-Dawley, plasma, iv, 10 mg/kg", "value": 1.85, "unit": "L/kg"},
      {"measurement": "CL", "setting": "[2]; in vivo, po, 20 mg/kg", "value": "103 ± 35", "unit": "mL/min/kg"},
      {"measurement": "hERG inhibition or binding affinity", "setting": "[3]", "value": "did not show inhibition or binding affinity"},
      {"measurement": "inhibition at 10 µM", "setting": "[4]", "value": -10.5, "unit": "%"},
      {"measurement": "% inhibition (10 μM)", "setting": "[5]", "value": "−17.94", "unit": "%"}
    ]}
  ]
}
